pIC50: −log10 of the molar value. Converted amounts (≈) assume the structure as drawn.
Columns and labels:
[1] = test system: Bacillus subtilis; experiment: Antibacterial activity against Bacillus subtilis ATCC 6633 after 24 hrs by twofold serial dilution method; assay type: functional; conditions: ATCC 6633, 24 h
[2] = test system: Staphylococcus aureus; experiment: Antibacterial activity against Staphylococcus aureus ATCC 6538p after 24 hrs by twofold serial dilution method; assay type: functional
[3] = test system: Micrococcus luteus; experiment: Antibacterial activity against Micrococcus luteus IFO 12708 after 24 hrs by twofold serial dilution method; assay type: functional; conditions: IFO 12708, 24 h
[4] = test system: Proteus vulgaris; experiment: Antibacterial activity against Proteus vulgaris ATCC 3851 after 24 hrs by twofold serial dilution method; assay type: functional; conditions: ATCC 3851, 24 h
[5] = test system: K562; experiment: Cytotoxicity against human K562 cells by MTT assay; assay type: functional; conditions: read-out: LC50 (the source's name)
[6] = test system: Escherichia coli; experiment: Antibacterial activity against Escherichia coli ATCC 25922 after 24 hrs by twofold serial dilution method; assay type: functional; conditions: ATCC 25922, 24 h
[7] = test system: Salmonella typhimurium; experiment: Antibacterial activity against Salmonella typhimurium ATCC 14028 after 24 hrs by twofold serial dilution method; assay type: functional, Salmonella enterica subsp. enterica serovar Typhimurium; conditions: Salmonella enterica, ATCC 14028, 24 h
[8] = Inhibition of Magnaporthe grisea Guy 11 isocitrate lyase; parameters: species or system Pyricularia oryzae

## CC(=O)OC[C@]12CCCC(C)(C)[C@@H]1CC[C@]1(C)[C@@H]2C[C@@H](OC(C)=O)[C@]2(C)[C@@H]3C(=CC[C@@H]12)CO[C@H]3O
[1]
  MIC: 0.78 µg/mL (≈ 1.6 µM)
[2]
  MIC: > 100 µg/mL
[3]
  MIC: > 100 µg/mL
[4]
  MIC: 3.12 µg/mL (≈ 6.39 µM)
[5]
  CC50: 39.5 µM
[6]
  MIC: > 100 µg/mL
[7]
  MIC: > 100 µg/mL

## CO[C@@H]1OC(=O)C2=CC[C@H]3[C@]4(C)CC[C@H]5C(C)(C)CCC[C@]5(C)[C@H]4C[C@@H](OC(C)=O)[C@]3(C)[C@H]21
[1]
  MIC: > 100 µg/mL
[2]
  MIC: > 100 µg/mL
[8]
  pIC50: 4.39
[3]
  MIC: > 100 µg/mL
[4]
  MIC: > 100 µg/mL
[5]
  CC50: 38.4 µM
[6]
  MIC: > 100 µg/mL
[7]
  MIC: > 100 µg/mL

## CO[C@@H]1OCC2=CC[C@H]3[C@]4(C)CC[C@H]5C(C)(C)CCC[C@]5(C)[C@H]4C[C@@H](O)[C@]3(C)[C@H]21
[1]
  MIC: > 100 µg/mL
[2]
  MIC: > 100 µg/mL
[3]
  MIC: > 100 µg/mL
[4]
  MIC: > 100 µg/mL
[5]
  CC50: 24.6 µM
[6]
  MIC: > 100 µg/mL
[7]
  MIC: > 100 µg/mL

## CC(=O)OC[C@]12CCCC(C)(C)[C@@H]1CC[C@]1(C)[C@@H]2C[C@@H](O)[C@]2(C)[C@@H]3C(=CC[C@@H]12)CO[C@H]3O
[1]
  MIC: 6.25 µg/mL (≈ 14 µM)
[2]
  MIC: 25 µg/mL (≈ 56 µM)
[8]
  pIC50: 3.97
[3]
  MIC: 12.5 µg/mL (≈ 28 µM)
[4]
  MIC: 12.6 µg/mL (≈ 28.2 µM)
[5]
  CC50: 19.5 µM
[6]
  MIC: > 100 µg/mL
[7]
  MIC: 12.5 µg/mL (≈ 28 µM)

## CO[C@@H]1OCC2=CC[C@H]3[C@]4(C)CC[C@H]5C(C)(C)CCC[C@]5(C)[C@H]4C[C@@H](OC(C)=O)[C@]3(C)[C@H]21
[1]
  MIC: > 100 µg/mL
[2]
  MIC: > 100 µg/mL
[3]
  MIC: > 100 µg/mL
[4]
  MIC: > 100 µg/mL
[5]
  CC50: > 100 µM
[6]
  MIC: > 100 µg/mL
[7]
  MIC: > 100 µg/mL

## CO[C@@H]1C[C@H]2[C@]3(C)CC[C@H]4C(C)(C)CCC[C@]4(C)[C@H]3C[C@@H](OC(C)=O)[C@]2(C)C2=C1C(=O)N(CC(=O)[O-])[C@H]2OC.[Na+]
[1]
  MIC: 6.25 µg/mL
[2]
  MIC: 50 µg/mL
[8]
  pIC50: 3.75
[3]
  MIC: 25 µg/mL
[4]
  MIC: 25 µg/mL
[5]
  CC50: 27 µM
[6]
  MIC: 100 µg/mL
[7]
  MIC: 50 µg/mL

## C[C@@]1(CO)CCC[C@]2(C)[C@H]3C[C@@H](O)[C@]4(C)[C@H]5COC(=O)C5=CC[C@H]4[C@]3(C)CC[C@@H]12
[1]
  MIC: > 100 µg/mL
[2]
  MIC: > 100 µg/mL
[8]
  pIC50: 3.88
[3]
  MIC: > 100 µg/mL
[4]
  MIC: > 100 µg/mL
[5]
  CC50: 31.1 µM
[6]
  MIC: > 100 µg/mL
[7]
  MIC: > 100 µg/mL

## CC(=O)O[C@@H]1C[C@@H]2[C@@]3(C)CCCC(C)(C)[C@@H]3CC[C@@]2(C)[C@@H]2CC=C3C(=O)O[C@@H](O)[C@@H]3[C@@]12C
[1]
  MIC: 6.25 µg/mL (≈ 14.1 µM)
[2]
  MIC: > 100 µg/mL
[8]
  pIC50: 3.95
[3]
  MIC: > 100 µg/mL
[4]
  MIC: 6.25 µg/mL (≈ 14.1 µM)
[5]
  CC50: 28.3 µM
[6]
  MIC: > 100 µg/mL
[7]
  MIC: > 100 µg/mL

## O=C(O)CC[N+](=O)[O-]
[8]
  pIC50: 4.55

## CO[C@@H]1C[C@H]2[C@]3(C)CC[C@H]4C(C)(C)CCC[C@]4(C)[C@H]3C[C@@H](OC(C)=O)[C@]2(C)C2=C1C(=O)O[C@H]2O
[1]
  MIC: 0.78 µg/mL (≈ 1.64 µM)
[2]
  MIC: 25 µg/mL (≈ 52.7 µM)
[3]
  MIC: 25 µg/mL (≈ 52.7 µM)
[4]
  MIC: 3.12 µg/mL (≈ 6.58 µM)
[5]
  CC50: 36.7 µM
[6]
  MIC: 50 µg/mL (≈ 105 µM)
[7]
  MIC: 12.5 µg/mL (≈ 26.3 µM)

## CC(=O)O[C@@H]1C[C@@H]2[C@@]3(C)CCCC(C)(C)[C@@H]3CC[C@@]2(C)[C@@H]2CC=C3CO[C@@H](O)[C@@H]3[C@@]12C
[1]
  MIC: > 100 µg/mL
[2]
  MIC: > 100 µg/mL
[8]
  pIC50: 4.26
[3]
  MIC: > 100 µg/mL
[4]
  MIC: > 100 µg/mL
[5]
  CC50: 31.3 µM
[6]
  MIC: > 100 µg/mL
[7]
  MIC: > 100 µg/mL

## CO[C@@H]1C[C@H]2[C@]3(C)CC[C@H]4C(C)(C)CCC[C@]4(C)[C@H]3C[C@@H](OC(C)=O)[C@]2(C)C2=C1[C@H](O)OC2=O (mixture of isomers)
[1]
  MIC: < 0.39 µg/mL
[2]
  MIC: 25 µg/mL
[3]
  MIC: 25 µg/mL
[4]
  MIC: 1.56 µg/mL
[5]
  CC50: 14.8 µM
[6]
  MIC: > 100 µg/mL
[7]
  MIC: 12.5 µg/mL

## CC1(C)S[C@@H]2[C@H](NC(=O)[C@H](N)c3ccccc3)C(=O)N2[C@H]1C(=O)O [AMPICILLIN]
[1]
  MIC: 0.78 µg/mL (≈ 2.23 µM)
[2]
  MIC: 1.56 µg/mL (≈ 4.46 µM)
[3]
  MIC: 0.39 µg/mL (≈ 1.12 µM)
[4]
  MIC: 1.56 µg/mL (≈ 4.46 µM)
[6]
  MIC: 6.25 µg/mL (≈ 17.9 µM)
[7]
  MIC: 1.56 µg/mL (≈ 4.46 µM)

## COc1cccc2c1C(=O)c1c(O)c3c(c(O)c1C2=O)C[C@@](O)(C(=O)CO)C[C@@H]3O[C@H]1C[C@H](N)[C@H](O)[C@H](C)O1 [DOXORUBICIN]
[5]
  CC50: 9.7 µM

Source: ChEMBL document CHEMBL1773036, “Scalarane sesterterpenes from the sponge Hyatella sp” (J Nat Prod, 2011)
